Measurements as given in patent US10722514B2 (FLX Bio, Inc., priority 2017, dated 2020).
Structures can show the parent of a compound that is named as a salt.

Biological target: T1, recombinant full-length USP7 (Homo sapiens, UniProt Q93009)
T1 construct: A 25 μl reaction volume containing recombinant full-length USP7 (62 pM)
Test: USP7-mediated ubiquitin-rhodamine cleavage assay
Type: biochemical
Settings: recombinant full-length USP7 62 pM; ubiquitin-rhodamine 100 nM; 30-minute incubation with compound, 1 hour reaction at room temperature; read-out: Potency: USP7 IC50
Procedure, shortened: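 Compounds are first incubated with 62 pM enzyme for 30 min at room temperature in pH 7.3 HEPES buffer containing TCEP and BSA. Cleavage of 100 nM ubiquitin-rhodamine proceeds for 1 h before an acid quench, and IC50 is derived from fluorescence.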

T1 sequence (Q93009 whole entry): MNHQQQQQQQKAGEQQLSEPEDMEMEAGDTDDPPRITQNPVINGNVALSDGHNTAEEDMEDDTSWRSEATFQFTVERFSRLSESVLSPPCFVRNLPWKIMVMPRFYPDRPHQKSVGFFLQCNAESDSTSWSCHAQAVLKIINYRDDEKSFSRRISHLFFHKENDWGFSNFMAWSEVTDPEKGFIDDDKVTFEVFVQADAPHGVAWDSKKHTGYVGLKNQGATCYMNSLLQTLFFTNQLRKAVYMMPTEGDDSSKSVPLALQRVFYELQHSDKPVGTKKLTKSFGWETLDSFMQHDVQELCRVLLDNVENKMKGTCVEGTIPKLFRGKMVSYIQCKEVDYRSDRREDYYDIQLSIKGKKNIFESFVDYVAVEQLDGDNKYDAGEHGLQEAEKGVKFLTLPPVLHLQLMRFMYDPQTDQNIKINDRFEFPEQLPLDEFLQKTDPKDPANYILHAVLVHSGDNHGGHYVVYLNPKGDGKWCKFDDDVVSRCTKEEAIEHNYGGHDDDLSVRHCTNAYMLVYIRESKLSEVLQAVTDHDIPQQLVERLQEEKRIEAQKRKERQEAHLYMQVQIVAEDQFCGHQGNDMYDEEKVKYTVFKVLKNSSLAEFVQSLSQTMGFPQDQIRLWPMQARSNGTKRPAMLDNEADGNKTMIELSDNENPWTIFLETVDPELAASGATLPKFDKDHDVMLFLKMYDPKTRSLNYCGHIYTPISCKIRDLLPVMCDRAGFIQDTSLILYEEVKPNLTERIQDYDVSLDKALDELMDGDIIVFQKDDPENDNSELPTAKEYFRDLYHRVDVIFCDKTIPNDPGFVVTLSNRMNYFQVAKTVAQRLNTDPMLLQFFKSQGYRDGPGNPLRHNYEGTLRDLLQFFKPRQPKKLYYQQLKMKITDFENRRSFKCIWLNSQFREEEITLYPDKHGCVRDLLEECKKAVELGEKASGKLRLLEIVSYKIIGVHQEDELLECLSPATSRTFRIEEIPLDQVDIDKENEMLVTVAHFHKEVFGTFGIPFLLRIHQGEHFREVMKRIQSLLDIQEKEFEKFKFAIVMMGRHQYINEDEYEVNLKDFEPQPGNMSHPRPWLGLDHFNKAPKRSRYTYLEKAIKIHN

| Compound | IC50 [nM] |
| --- | --- |
| Cc1cc(Cl)cc(-c2ncnc3cc(CN4C(=O)C5CC5C4=O)sc23)c1O[C@H]1CCCNC1 (stereo partly drawn) [Example 245, 3-((4-(5-Chloro-3-methyl-2-(((S)-piperidin-3-yl)oxy)phenyl)thieno[3,2-d]pyrimidin-6-yl)methyl)-3-azabicyclo[3.1.0]hexane-2,4-dione] | < 1000 |
| 3-((7-(5-Chloro-2-(((3S,4R)-4-fluoropiperidin-3-yl)oxy)-3-methyphenyl)thien[3,2-b]pyridin-2-yl)methyl)-1-(2,2,2-trifluoroethyl)pyrimidine-2,4(1H,3H)-dione [Example 4] | < 1000 |
| N#Cc1cc(Cl)cc(-c2ccnc3cc(CN4C(=O)CCC4=O)sc23)c1O[C@@H]1CNC[C@@H]1F [Example 121, 5-Chloro-3-(2-((2,5-dioxopyrrolidin-1-yl)methyl)thieno[3,2-b]pyridin-7-yl)-2-(((3R,4S)-4-fluoropyrrolidin-3-yl)oxy)benzonitrile] | < 1000 |
| Cc1cc(Cl)cc(-c2ccnc3cc(CN4C(=O)C5CC5C4=O)sc23)c1OC1CCNCC1 (centres unmarked) [Example 233, 3-((7-(5-Chloro-3-methyl-2-(piperidin-4-yloxy)phenyl)thieno[3,2-b]pyridin-2-yl)methyl)-3-azabicyclo[3.1.0]hexane-2,4-dione] | < 1000 |
| Cc1cc(Cl)cc(-c2ccnc3cc(CO)sc23)c1O[C@H]1C[C@H]2CC[C@@H](C1)N2 [Example 193, (7-(2-(((1R,3r,5S)-8-Azabicyclo[3.2.1]octan-3-yl)oxy)-5-chloro-3-methylphenyl)thieno[3,2-b]pyridin-2-yl)methanol] | 1000 to 10000 |
| Cc1cc(Cl)cc(-c2ccnc3cc(Cn4c(=O)ccn(C)c4=O)sc23)c1O[C@@H]1CNC[C@@H]1F [Example 151, 3-((7-(5-Chloro-2-(((3R,4S)-4-fluoropyrrolidin-3-yl)oxy)-3-methylphenyl)thieno[3,2-b]pyridin-2-yl)methyl)-1-methylpyrimidine-2,4(1H,3H)-dione] | < 1000 |
| CCC(O)c1cc2ncnc(-c3cc(Cl)cc(C)c3O[C@H]3CCCNC3)c2s1 (stereo partly drawn) [Example 174, 1-(4-(5-Chloro-3-methyl-2-(((S)-piperidin-3-yl)oxy)phenyl)thieno[3,2-d]pyrimidin-6-yl)propan-1-ol] | 1000 to 10000 |
| Cc1cc(Cl)cc(-c2ccnc3cc(CN4C(=O)C5CCCCC5C4=O)sc23)c1OC1CCNCC1 (centres unmarked) [Example 217] | 1000 to 10000 |
| Cc1cc(Cl)cc(-c2ccnc3cc(CN4C(=O)C(C)C(C)C4=O)sc23)c1O[C@H]1CCCNC1 (stereo partly drawn) [Example 296, 1-[[7-[5-chloro-3-methyl-2-[[(3S)-3-piperidyl]oxy]phenyl]thieno[3,2-b]pyridin-2-yl]methyl]-3,4-dimethyl-pyrrolidine-2,5-dione; 2,2,2-trifluoroacetic acid] | < 1000 |
| O=C1CCC(=O)N1Cc1cc2nccc(-c3cc(Cl)ccc3O[C@@H]3CNC[C@@H]3F)c2s1 [Example 119, 1-((7-(5-Chloro-2-(((3R,4S)-4-fluoropyrrolidin-3-yl)oxy)phenyl)thieno[3,2-b]pyridin-2-yl)methyl)pyrrolidine-2,5-dione] | 1000 to 10000 |
| CC(=O)N[C@H]1CNC[C@H]1Oc1c(C)cc(Cl)cc1-c1ccnc2cc(CO)sc12 [Example 84, N-((3S,4R)-4-(4-Chloro-2-(2-(hydroxymethyl)thieno[3,2-b]pyridin-7-yl)-6-methylphenoxy)pyrrolidin-3-yl)acetamide] | 10000 to 30000 |
| Cc1cc(C#N)cc(-c2ccnc3cc(CN4C(=O)CCC4=O)sc23)c1OCC1(C#N)CNC1 [Example 27, 3-((4-Cyano-2-(2-((2,5-dioxopyrrolidin-1-yl)methyl)thieno[3,2-b]pyridin-7-yl)-6-methylphenoxy)methyl)azetidine-3-carbonitrile] | < 1000 |

The remaining lines, values ahead:

| IC50 [nM] | Compound |
| --- | --- |
| < 1000 | O=C(O)C(F)(F)F.[2H]C1([2H])C(=O)N(Cc2cc3nccc(-c4cc(Cl)cc(C)c4O[C@@H]4CNC[C@@H]4F)c3s2)C(=O)C1([2H])[2H] [Example 384, 1-[[7-[5-chloro-2-[(3R,4S)-4-fluoropyrrolidin-3-yl]oxy-3-methyl-phenyl]thieno[3,2-b]pyridin-2-yl]methyl]-3,3,4,4-tetradeuterio-pyrrolidine-2,5-dione; 2,2,2-trifluoroacetic acid] |
| < 1000 | CCN1CC(Oc2c(C)cc(Cl)cc2-c2ccnc3cc(CN4C(=O)C5C(C4=O)C5(C)C)sc23)C(C)(F)C1 (centres unmarked) [Example 374, 3-[[7-[5-chloro-2-(1-ethyl-4-fluoro-4-methyl-pyrrolidin-3-yl)oxy-3-methyl-phenyl]thieno[3,2-b]pyridin-2-yl]methyl]-6,6-dimethyl-3-azabicyclo[3.1.0]hexane-2,4-dione dihydrochloride] |

Same assay, conditions: recombinant full-length USP7 62 pM; ubiquitin-rhodamine 100 nM; 30-minute incubation, 1 hour reaction at room temperature; read-out: Potency (USP7 IC50)

| Compound | IC50 [nM] |
| --- | --- |
| Cc1cc(Cl)cc(-c2ccnc3cc(Cn4c(=O)ccn(CC(F)(F)F)c4=O)sc23)c1OC1CC(N2CCC[C@H]2CF)C1 (stereo partly drawn) [Example 687, 3-[[7-[5-chloro-2-[3-[(2S)-2-(fluoromethyl)pyrrolidin-1-yl]cyclobutoxy]-3-methyl-phenyl]thieno[3,2-b]pyridin-2-yl]methyl]-1-(2,2,2-trifluoroethyl)pyrimidine-2,4-dione; 2,2,2-trifluoroacetic acid] | < 1000 |

Same assay, conditions: recombinant full-length USP7 62 pM; ubiquitin-rhodamine 100 nM; 30-minute pre-incubation, 1 hour reaction at room temperature; read-out: Potency (USP7 IC50)

| Compound | IC50 [nM] |
| --- | --- |
| Cc1cc(Cl)cc(-c2ccnc3cc(CN4C(=O)CCC4=O)sc23)c1OC1CC(C)(N)C1 (centres unmarked) [Example 443, 1-[[7-[2-(3-amino-3-methyl-cyclobutoxy)-5-chloro-3-methyl-phenyl]thieno[3,2-b]]pyridin-2-yl]methyl]pyrrolidine-2,5-dione dihydrochloride] | < 1000 |
| Cc1cc(Cl)cc(-c2ccnc3cc(Cn4c(=O)ccn(CC(F)(F)F)c4=O)sc23)c1O[C@H]1CC[C@](C)(N)C1 [Example 597, 3-[[7-[2-[(1S,3S)-3-amino-3-methyl-cyclopentoxy]-5-chloro-3-methyl-phenyl]thieno[3,2-b]pyridin-2-yl]methyl]-1-(2,2,2-trifluoroethyl)pyrimidine-2,4-dione; 2,2,2-trifluoroacetic acid] | < 1000 |

Continued, values first:

| IC50 [nM] | Compound |
| --- | --- |
| < 1000 | Cc1cc(Cl)cc(-c2ncnc3cc(Cn4c(=O)ccn(CC(F)(F)F)c4=O)sc23)c1O[C@@H]1CCNC[C@@H]1C [Example 520, 3-[[4-[5-chloro-3-methyl-2-[[(3S,4R)-3-methyl-4-piperidyl]oxy]phenyl]thieno[3,2-d]pyrimidin-6-yl]methyl]-1-(2,2,2-trifluoroethyl)pyrimidine-2,4-dione] |
| < 1000 | Cc1cc(Cl)cc(-c2ccnc3cc(Cn4c(=O)ccn(CC(F)(F)F)c4=O)sc23)c1O[C@@H]1C[C@@H]2C[C@H]1CN2 [Example 637, 3-[[7-[2-[[(1S,4S,5R)-2-azabicyclo[2.2.1]heptan-5-yl]oxy]-5-chloro-3-methyl-phenyl]thieno[3,2-b]pyridin-2-yl]methyl]-1-(2,2,2-trifluoroethyl)pyrimidine-2,4-dione; 2,2,2-trifluoroacetic acid] |
| < 1000 | Cc1cc(Cl)cc(-c2ccnc3cc(CN4C(=O)CCC4=O)sc23)c1OC1CC2(CCN2)C1 (centres unmarked) [Example 439, 1-[[7-[2-(1-azaspiro[3.3]heptan-6-yloxy)-5-chloro-3-methyl-phenyl]thieno[3,2-b]pyridin-2-yl]methyl]pyrrolidine-2,5-dione; 2,2,2-trifluoroacetic acid] |
| < 1000 | Cc1cc(Cl)cc(-c2ccnc3cc(Cn4c(=O)ccn(C(C)C)c4=O)sc23)c1O[C@@H]1CNC[C@@H]1F [Example 451, 3-[[7-[5-chloro-2-[(3R,4S)-4-fluoropyrrolidin-3-yl]oxy-3-methyl-phenyl]thieno[3,2-b]pyridin-2-yl]methyl]-1-isopropyl-pyrimidine-2,4-dione] |
| < 1000 | COCCN1CC[C@@H](Oc2c(C)cc(Cl)cc2-c2ccnc3cc(Cn4c(=O)ccn(CC(F)(F)F)c4=O)sc23)[C@H](C)C1 [Example 654, 3-[[7-[5-chloro-2-[[(3R,4R)-1-(2-methoxyethyl)-3-methyl-4-piperidyl]oxy]-3-methyl-phenyl]thieno[3,2-b]pyridin-2-yl]methyl]-1-(2,2,2-trifluoroethyl)pyrimidine-2,4-dione] |
| < 1000 | COC(=O)[C@H]1C[C@H](Oc2c(C)cc(Cl)cc2-c2ccnc3cc(Cn4c(=O)ccn(CC(F)(F)F)c4=O)sc23)CN1 [Example 653, methyl (2R,4S)-4-[4-chloro-2-[2-[[2,6-dioxo-3-(2,2,2-trifluoroethyl)pyrimidin-1-yl]methyl]thieno[3,2-b]pyridin-7-yl]-6-methyl-phenoxy]pyrrolidine-2-carboxylate] |
| < 1000 | CC(=O)N1CCC[C@H](Oc2c(C)cc(Cl)cc2-c2ccnc3cc(Cn4c(=O)ccn(CC(F)(F)F)c4=O)sc23)C1 [Example 660, 3-[[7-[2-[[(3S)-1-acetyl-3-piperidyl]oxy]-5-chloro-3-methyl-phenyl]thieno[3,2-b]pyridin-2-yl]methyl]-1-(2,2,2-trifluoroethyl)pyrimidine-2,4-dione] |
| < 1000 | Cc1cc(Cl)cc(-c2ccnc3cc(CN4C(=O)CCC4=O)sc23)c1OC1CC2(CCN2)C1 (centres unmarked) [Example 464, 1-[[7-[2-(1-azaspiro[3.3]heptan-6-yloxy)-5-chloro-3-methyl-phenyl]thieno[3,2-b]pyridin-2-yl]methyl]pyrrolidine-2,5-dione; 2,2,2-trifluoroacetic acid] |
| < 1000 | Cc1cc(Cl)cc(-c2ccnc3cc(Cn4c(=O)ccn(C)c4=O)sc23)c1O[C@@H]1CN[C@@H](C(=O)O)C1 [Example 599, (2R,4S)-4-[4-chloro-2-methyl-6-[2-[(3-methyl-2,6-dioxo-pyrimidin-1-yl)methyl]thieno[3,2-b]pyridin-7-yl]phenoxy]pyrrolidine-2-carboxylic acid] |
